The record followed here is PMC11372264, “^61Cu-PSMA–Targeted PET for Prostate Cancer: From Radiotracer Development to First-in-Human Imaging” (Journal of Nuclear Medicine, 2024).

A short description of data set [1]: Lipophilicity: distribution coefficient in 1:1 1-octanol/phosphate-buffered saline at pH 7.4. It counts as physicochemical. On the procedure:
(§1) The lipophilicity of [^61Cu]Cu-DOTAGA-PSMA-I&T and [^61Cu]Cu-NODAGA-PSMA-I&T was assessed by determining the distribution coefficient in a 1:1 mixture of 1-octanol–to–phosphate-buffered saline at pH 7.4, in comparison with all reference radiotracers. Inhibitory concentration of 50% (IC50) was assessed by competition binding on lymph node carcinoma of the prostate (LNCaP) using ((S)-1-carboxy-5-(4-(-^125I-iodo-benzamido)pentyl)carbamoyl)-L-glutamic acid as the reference radioligand. Cellular uptake and distribution were assessed in LNCaP cells at 5, 15, 30, 60, and 120 min after exposure to the radioligand at 37°C, either alone or in the presence of 10 µM 2-(phosphonomethyl)pentanedioic acid to distinguish between specific and nonspecific uptake.

Another data set deals with LNCaP xenografts. Nature of the data set: Biodistribution in LNCaP xenografts. Type of data set: in vivo, mice. The procedure:
All animal experiments were conducted in accordance with Swiss animal welfare laws and regulations under license number 30515 granted by the Veterinary Office, Department of Health, Canton Basel-Stadt, Switzerland. Male athymic nude-Foxn1^nu/Foxn1^+ mice (Envigo), 4–6 wk old, were inoculated subcutaneously on the shoulder with 10^7 LNCaP cells, freshly suspended in a 1:1 ratio of sterile minimum essential medium with basal medium Eagle and Matrigel. The tumors were allowed to grow to a volume of approximately 200 mm^3.
The biodistribution of [^61Cu]Cu-DOTAGA-PSMA-I&T and [^61Cu]Cu-NODAGA-PSMA-I&T (100 µL/200 pmol/2–3 MBq) was compared with that of [^68Ga]Ga-DOTAGA-PSMA-I&T, [^68Ga]Ga-NODAGA-PSMA-I&T, and [^68Ga]Ga-PSMA-11 (100 µL/200 pmol/3–5 MBq), as well as [^18F]PSMA-1007 (100 µL/70 pmol/15 MBq). This comparison was conducted at 1 h after injection for all radiotracers and at 4 h after injection for the ^61Cu-labeled tracers and [^18F]PSMA-1007. The specificity of the ^61Cu-labeled tracers was assessed at 1 h after injection by blocking studies with 2-(phosphonomethyl)pentanedioic acid (100 µL/1.3 µmol) being injected 3–5 min before the injection of the radiotracer.

For the next data set, the system named is LNCaP cells. Nature of the data set: Cellular uptake and distribution (surface-bound, internalized) in LNCaP cells. Type of data set: cell-based. As to conditions: 1 h, 37°C, specific uptake. The procedure:
as §1
(§2) FIGURE 1. In vitro assessment in LNCaP cells after 1 h at 37°C. (A) Competition binding activity curves of ^natCu-DOTAGA-PSMA-I&T, ^natCu-NODAGA-PSMA-I&T, and ^natGa-PSMA-11 on LNCaP cells after 1 h of incubation on ice, using ((S)-1-carboxy-5-(4-(-^125I-iodo-benzamido)pentyl)carbamoyl)-L-glutamic acid ([^125I-BA]KuE) at concentration of 0.2 nM as reference radioligand. (B) Cellular uptake (surface-bound + internalized). Cell surface–bound and internalized fractions are indicated. Results represent mean ± SD of specific (total − nonspecific) uptake from minimum of 2 separate experiments, each in triplicate.

Another data set deals with T1, PSMA (Homo sapiens, UniProt Q04609).
T1 construct: endogenous in cells; host or cells: LNCaP cells
Nature of the data set: Competition binding on LNCaP cells using [^125I-BA]KuE as reference radioligand. The settings on record: [^125I-BA]KuE 0.2 nM, 1 h on ice, determined with natCu/natGa complexes. On the procedure: as §1, §2

T1 sequence (Q04609 whole entry): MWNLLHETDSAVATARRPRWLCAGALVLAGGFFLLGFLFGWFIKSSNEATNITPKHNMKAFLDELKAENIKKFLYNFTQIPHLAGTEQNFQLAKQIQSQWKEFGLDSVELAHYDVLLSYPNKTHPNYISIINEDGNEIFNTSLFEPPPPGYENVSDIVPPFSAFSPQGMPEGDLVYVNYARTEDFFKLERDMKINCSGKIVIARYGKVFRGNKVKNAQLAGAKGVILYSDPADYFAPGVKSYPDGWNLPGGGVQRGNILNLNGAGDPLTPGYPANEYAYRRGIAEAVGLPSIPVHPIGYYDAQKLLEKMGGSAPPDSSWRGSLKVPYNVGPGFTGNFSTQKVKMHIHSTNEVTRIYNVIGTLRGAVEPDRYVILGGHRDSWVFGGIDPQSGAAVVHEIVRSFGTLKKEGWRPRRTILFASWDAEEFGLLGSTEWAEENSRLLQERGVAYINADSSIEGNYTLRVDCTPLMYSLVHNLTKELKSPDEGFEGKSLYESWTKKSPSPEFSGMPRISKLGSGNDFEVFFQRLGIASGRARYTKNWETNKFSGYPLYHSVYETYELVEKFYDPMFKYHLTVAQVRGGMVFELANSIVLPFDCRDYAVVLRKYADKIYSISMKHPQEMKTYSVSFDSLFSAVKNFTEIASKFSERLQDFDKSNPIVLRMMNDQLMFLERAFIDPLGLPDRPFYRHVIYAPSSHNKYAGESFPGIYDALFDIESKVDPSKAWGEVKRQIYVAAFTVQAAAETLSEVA

As for `O=C(O)CC[C@H](NC(=O)N[C@@H](CCCCNC(=O)[C@H](Cc1ccc2ccccc2c1)NC(=O)c1ccc(CNC(=O)[C@H](CCC(=O)O)NC(=O)[C@H](CCC(=O)O)NC(=O)c2ccc([18F])nc2)cc1)C(=O)O)C(=O)O` [[^18F]PSMA-1007, reference compound], the logDpH7.4 in data set [1] was −3.02 ± 0.11. Also, in the data set on LNCaP xenografts (1 h after injection), the “Biodistribution, Adrenals” value was found to be 7.18 ± 2.20 %IA/g; the “Biodistribution, Blood” value was found to be 0.41 ± 0.11 %IA/g; the “Biodistribution, Femur” value amounted to 0.94 ± 0.13 %IA/g; the “Biodistribution, Heart” value was found to be 1.25 ± 0.29 %IA/g. Further, in the data set with LNCaP xenografts (1 h after injection), the “Biodistribution, Intestine” value turned out to be 1.04 ± 0.33 %IA/g; the “Biodistribution, Kidneys” value was found to be 100 ± 17 %IA/g; the “Biodistribution, Liver” value is reported as 0.93 ± 0.26 %IA/g; the “Biodistribution, Lung” value worked out at 2.08 ± 0.24 %IA/g. In the data set with LNCaP xenografts (1 h after injection), the “Biodistribution, Muscles” value is on record as 0.53 ± 0.09 %IA/g; the “Biodistribution, Pancreas” value was 1.32 ± 0.58 %IA/g; the “Biodistribution, Salivary glands” value amounted to 2.54 ± 0.72 %IA/g; the “Biodistribution, Spleen” value is on record as 11.0 ± 1.1 %IA/g. In the data set with LNCaP xenografts (1 h after injection), the “Biodistribution, Stomach” value was determined as 0.75 ± 0.15 %IA/g; the “Biodistribution, Tumor (tumor uptake)” value came to 9.70 ± 2.57 %IA/g; the Tumor-to-Adrenals ratio came to 1.45 ± 0.55; the Tumor-to-Blood ratio came to 25.8 ± 11.5. Besides, in the data set with LNCaP xenografts (1 h after injection), the Tumor-to-Intestine ratio worked out at 10.3 ± 4.8, the Tumor-to-Kidneys ratio came out at 0.10 ± 0.03, the Tumor-to-Liver ratio is 11.3 ± 4.5 and the Tumor-to-Muscles ratio amounted to 19.2 ± 6.5. In the data set on LNCaP xenografts (1 h after injection), the Tumor-to-Salivary glands ratio was 4.12 ± 1.60 and the Tumor-to-Spleen ratio was found to be 0.89 ± 0.20. Besides, in the data set with LNCaP xenografts (4 h after injection), the “Biodistribution, Adrenals” value worked out at 8.03 ± 2.66 %IA/g; the “Biodistribution, Blood” value amounted to 0.17 ± 0.04 %IA/g; the “Biodistribution, Femur” value was 0.62 ± 0.11 %IA/g; the “Biodistribution, Heart” value came out at 0.53 ± 0.23 %IA/g. In addition, in the data set with LNCaP xenografts (4 h after injection), the “Biodistribution, Intestine” value is reported as 0.43 ± 0.22 %IA/g; the “Biodistribution, Kidneys” value is recorded as 132 ± 9 %IA/g; the “Biodistribution, Liver” value is on record as 0.32 ± 0.16 %IA/g; the “Biodistribution, Lung” value is 1.61 ± 0.58 %IA/g. In the data set on LNCaP xenografts (4 h after injection), the “Biodistribution, Muscles” value was found to be 0.27 ± 0.11 %IA/g; the “Biodistribution, Pancreas” value stood at 0.80 ± 0.32 %IA/g; the “Biodistribution, Salivary glands” value is on record as 1.62 ± 0.43 %IA/g; the “Biodistribution, Spleen” value was 8.33 ± 2.11 %IA/g. Further, in the data set with LNCaP xenografts (4 h after injection), the “Biodistribution, Stomach” value was 0.47 ± 0.16 %IA/g; the “Biodistribution, Tumor (tumor uptake)” value worked out at 6.28 ± 2.19 %IA/g; the Tumor-to-Adrenals ratio worked out at 0.78 ± 0.11; the Tumor-to-Blood ratio turned out to be 42.7 ± 16.4. In addition, in the data set on LNCaP xenografts (4 h after injection), the Tumor-to-Intestine ratio turned out to be 12.4 ± 4.4, the Tumor-to-Kidneys ratio was 0.04 ± 0.01, the Tumor-to-Liver ratio turned out to be 18.4 ± 8.5 and the Tumor-to-Muscles ratio is recorded as 20.1 ± 2.5. Besides, in the data set with LNCaP xenografts (4 h after injection), the Tumor-to-Salivary glands ratio amounted to 3.63 ± 0.40 and the Tumor-to-Spleen ratio was determined as 0.71 ± 0.12.

For `O=C([O-])CN1CCN(CC(=O)[O-])CCN(C(CCC(=O)N[C@H](Cc2ccc(O)c(I)c2)C(=O)N[C@H](Cc2ccccc2)C(=O)N[C@H](CCCCNC(=O)CCCCCCC(=O)NCCCC[C@H](NC(=O)N[C@@H](CCC(=O)O)C(=O)O)C(=O)O)C(=O)O)C(=O)O)CCN(CC(=O)[O-])CC1.[68Ga+3]` (some centres unmarked) [[^68Ga]Ga-DOTAGA-PSMA-I&T, reference compound], the “Cellular uptake (surface-bound + internalized)” value in the data set with LNCaP cells is given as 20.6% ± 2.3%.

In the case of `O=C([O-])CN1CCN(CC(=O)[O-])CCN(C(CCC(=O)N[C@H](Cc2ccc(O)c(I)c2)C(=O)N[C@H](Cc2ccccc2)C(=O)N[C@H](CCCCNC(=O)CCCCCCC(=O)NCCCC[C@H](NC(=O)N[C@@H](CCC(=O)O)C(=O)O)C(=O)O)C(=O)O)C(=O)[O-])CC1.[68Ga+3]` (some centres unmarked) [[^68Ga]Ga-NODAGA-PSMA-I&T], in the data set on LNCaP cells, the “Cellular uptake (surface-bound + internalized)” value is listed as 18.1% ± 2.6%.

Regarding `O=C([O-])CN(CCN(CC(=O)[O-])Cc1cc(CCC(=O)NCCCCCC(=O)NCCCC[C@H](NC(=O)N[C@@H](CCC(=O)O)C(=O)O)C(=O)O)ccc1[O-])Cc1cc(CCC(=O)O)ccc1[O-].[68Ga+3].[OH3+]` [[^68Ga]Ga-PSMA-11, reference compound], the logDpH7.4 in data set [1] was −3.89 ± 0.19. In addition, the “Cellular uptake (surface-bound + internalized)” value with LNCaP cells is reported as 25.8% ± 0.5%. For the same molecule, in the data set with LNCaP xenografts (1 h after injection), the “Biodistribution, Adrenals” value was 19.2 ± 5.3 %IA/g; the “Biodistribution, Blood” value was 0.25 ± 0.07 %IA/g; the “Biodistribution, Femur” value is reported as 3.69 ± 1.86 %IA/g; the “Biodistribution, Heart” value was 0.32 ± 0.10 %IA/g. Further, in the data set with LNCaP xenografts (1 h after injection), the “Biodistribution, Intestine” value was 1.52 ± 0.60 %IA/g; the “Biodistribution, Kidneys” value amounted to 159 ± 31 %IA/g; the “Biodistribution, Liver” value was 0.54 ± 0.27 %IA/g; the “Biodistribution, Lung” value came out at 1.43 ± 0.43 %IA/g. For the same molecule, in the data set with LNCaP xenografts (1 h after injection), the “Biodistribution, Muscles” value worked out at 0.90 ± 0.36 %IA/g; the “Biodistribution, Pancreas” value came to 0.70 ± 0.12 %IA/g; the “Biodistribution, Salivary glands” value came to 1.56 ± 0.31 %IA/g; the “Biodistribution, Spleen” value is listed as 6.38 ± 1.37 %IA/g. Besides, in the data set with LNCaP xenografts (1 h after injection), the “Biodistribution, Stomach” value was found to be 0.69 ± 0.11 %IA/g; the “Biodistribution, Tumor (tumor uptake)” value worked out at 10.2 ± 1.5 %IA/g; the Tumor-to-Adrenals ratio was 0.58 ± 0.26; the Tumor-to-Blood ratio is reported as 45.3 ± 19.7. In addition, in the data set with LNCaP xenografts (1 h after injection), the Tumor-to-Intestine ratio is 8.66 ± 6.90, the Tumor-to-Kidneys ratio is on record as 0.07 ± 0.02, the Tumor-to-Liver ratio is given as 23.5 ± 12.5 and the Tumor-to-Muscles ratio stood at 13.6 ± 8.3. Moreover, in the data set on LNCaP xenografts (1 h after injection), the Tumor-to-Salivary glands ratio is recorded as 6.72 ± 1.51 and the Tumor-to-Spleen ratio is 1.69 ± 0.58.

With `O=C([O-])CN1CCN(CC(=O)O)CCN(CC(=O)[O-])CCN(C(CCC(=O)N[C@H](Cc2ccc(O)c(I)c2)C(=O)N[C@H](Cc2ccccc2)C(=O)N[C@H](CCCCNC(=O)CCCCCCC(=O)NCCCC[C@H](NC(=O)N[C@@H](CCC(=O)O)C(=O)O)C(=O)O)C(=O)O)C(=O)O)CC1.[Cu+2]` (some centres unmarked) [^natCu-DOTAGA-PSMA-I&T], the IC50 (as a rule, the concentration at which inhibition is half-maximal) at PSMA came out at 11.2 ± 2.3 nM.

Regarding `O=C([O-])CN1CCN(CC(=O)[O-])CCN(C(CCC(=O)N[C@H](Cc2ccc(O)c(I)c2)C(=O)N[C@H](Cc2ccccc2)C(=O)N[C@H](CCCCNC(=O)CCCCCCC(=O)NCCCC[C@H](NC(=O)N[C@@H](CCC(=O)O)C(=O)O)C(=O)O)C(=O)O)C(=O)O)CC1.[Cu+2]` (some centres unmarked) [^natCu-NODAGA-PSMA-I&T], on PSMA, the IC50 was found to be 9.3 ± 1.8 nM.

`O=C([O-])CN(CCN(CC(=O)[O-])Cc1cc(CCC(=O)NCCCCCC(=O)NCCCC[C@H](NC(=O)N[C@@H](CCC(=O)O)C(=O)O)C(=O)O)ccc1O)Cc1cc(CCC(=O)O)ccc1[O-].[Ga+3]` [^natGa-PSMA-11, reference compound] returned an IC50 on PSMA of 2.4 ± 0.4 nM. Compared with the last molecule, the IC50 is about 3.9-fold lower.
